# Reference: patent US20140088197A1, “MIXED CRYSTAL AGOMELATINE (FORM VIII), PREPARATION METHOD AND USE THEREOF AND PHARMACEUTICAL COMPOSITION CONTAINING SAME” (LES LABORATORIES SERVIER, priority 2011, published 2014)
# Like-named read-outs stand apart in the source and are kept apart here.
# Legend:
# Assay type in all cases: physicochemical
# [1] = Measurement of water solubility (HPLC, external standard); settings: for solubility: water
# Description: 3. Measurement of Water Solubility
# The HPLC method was used to determine water solubility, with measurements being made using an external standard method.
# [2] = Determination of crystalline stability (pharmacopoeia stability assessment method); design: key to Crystalline stability, long term testing (6 months) / Crystalline stability, long term testing (9 months) / Crystalline stability, long term testing (12 months) / Crystalline stability, influencing factor: high temperature / Crystalline stability, influencing factor: illumination / Crystalline stability, influencing factor: high humidity / Crystalline stability, accelerated testing: √—stable; x—unstable; settings: for Crystalline stability, influencing factor: high temperature: 60° C.; for Crystalline stability, influencing factor: high temperature / Crystalline stability, influencing factor: high humidity / Crystalline stability, influencing factor: illumination: exposed for 10 days; for Crystalline stability, influencing factor: high humidity: 92.5% RH; for Crystalline stability, influencing factor: high humidity / Crystalline stability, long term testing (6 months) / Crystalline stability, long term testing (9 months) / Crystalline stability, long term testing (12 months): 25° C.; for Crystalline stability, accelerated testing: hermetically sealed for 6 months, 30° C., 65% RH; for Crystalline stability, long term testing (6 months) / Crystalline stability, long term testing (9 months) / Crystalline stability, long term testing (12 months): hermetically sealed, 60% RH
# Description: 4. Determination of Crystalline Stability
# [3] = Storage stability at 40° C. for 20 days, purity and content by HPLC; settings: for Content: external standard method; for Purity: internal standard method
# Protocol: Agomelatine crystalline forms VI and VIII (obtained through embodiment 2) are each placed in thermostatic containers at a temperature of 40° C. and stored for 20 days, with the stability of these samples being studied using the method of High Performance Liquid Chromatography.
# 1. Purity Measurement of the Sample
# Chromatographic conditions: Octadecyl silane chemically bonded silica is used as packing; a mixed solution of 10 mmol/L phosphate buffer (adjusted to pH 7.0 with sodium hydroxide) and acetonitrile in the ratio 2:7 by volume acts as the mobile phase; column temperature 40° C.; and detection wavelength 220 nm. Purity is measured using an internal standard method.
# In the mobile phase, crystalline forms VI and VIII are distributed into 1 mg/mL solutions, 10 μL of each of which are then passed into a liquid chromatograph, with their chromatograms being recorded.
# The reference sample purity measurement method was used, with measurements being made using an […], the results can be seen in Table I.
# [4] = after storage in thermostatically controlled containers at 40° C. for 20 days
# [5] = compared with crystalline form VI
SMILES,solubility ([1]; read-out: Solubility),"Crystalline stability, influencing factor: high temperature [2]","Crystalline stability, influencing factor: high humidity [2]","Crystalline stability, influencing factor: illumination [2]","Crystalline stability, accelerated testing [2]","Crystalline stability, long term testing (6 months) [2]","Crystalline stability, long term testing (9 months) [2]","Crystalline stability, long term testing (12 months) [2]",Crystal transition under extreme conditions ([2]; high temperature of 60° C. for 10 days),"Content [3, 4]","Purity [3, 4]",Content ([3]; before storage),Purity ([3]; before storage),"Solubility compared with crystalline form VI [1, 5]",solubility [1],"Stability under high temperature compared with crystalline form VI [2, 5]"
"COc1ccc2cccc(CCNC(C)=O)c2c1 [Crystalline form VI, N-[2-(7-methoxy-1-naphthyl)ethyl]acetamide, reference compound]",336 µg/mL,x*,√,√,√,√,√,x,small amounts of crystal transition can occur,99.8%,99.6%,100.1%,99.7%,–,–,–
"COc1ccc2cccc(CCNC(C)=O)c2c1 [Form VIII, N-[2-(7-methoxy-1-naphthyl)ethyl]acetamide]",–,√*,√,√,√,√,√,√,–,100.1%,99.7%,100.3%,99.8%,comparable solubility,335 µg/mL,greater stability under high temperature
